Key:
[1] = tested on: succinate dehydrogenase (SDH); experiment: Succinate dehydrogenase activity in A549 cells; assay type: cell-based, human; settings: 50 µM
Description: The activity of succinate dehydrogenase (SDH) in cells was determined using an SDH activity assay kit (Solarbio, Beijing, China) according to the manufacturer’s instructions. The optical density at 600 nm (OD600) was measured using a multifunctional microplate reader in 96-well plates. One unit of SDH activity was defined as the amount of enzyme catalyzing the consumption of 1 nmol of 2,6-dichlorophenol indophenol per minute at 37 °C [43]. The activity of aconitase (ACO) was measured as previously described, with some modifications. The cells were washed three times with pre-cooled PBS and lysed with lysis buffer containing 50 mM of Tris-HCl (pH 8.0), 0.2% Triton X-100, 0.6 mM of MnCl2, 5 mM of citrate, and 1 mM of PMSF. The aconitase activity was measured by monitoring the formation of cis-aconitate from isocitrate at 240 nm in 50 mM of Tris-HCl (pH 8.0) containing 20 mM of DL-trisodium isocitrate at 37 °C. An extinction coefficient of 3600 M^−1 cm^−1 at 240 nm was used to calculate the cis-aconitate concentration. One unit of ACO activity was defined as the amount of enzyme catalyzing the generation of 1 nmol of cis-aconitate per minute at 37 °C.

[2] = target: T1, cystathionine-γ-lyase (CSE) (Homo sapiens, UniProt P32929); experiment: Selectivity assay, H2S-producing activity of CSE; assay type: biochemical; settings: at 100 µM
T1 construct: made in house; host or cells: E. coli
T1 sequence (P32929 whole entry): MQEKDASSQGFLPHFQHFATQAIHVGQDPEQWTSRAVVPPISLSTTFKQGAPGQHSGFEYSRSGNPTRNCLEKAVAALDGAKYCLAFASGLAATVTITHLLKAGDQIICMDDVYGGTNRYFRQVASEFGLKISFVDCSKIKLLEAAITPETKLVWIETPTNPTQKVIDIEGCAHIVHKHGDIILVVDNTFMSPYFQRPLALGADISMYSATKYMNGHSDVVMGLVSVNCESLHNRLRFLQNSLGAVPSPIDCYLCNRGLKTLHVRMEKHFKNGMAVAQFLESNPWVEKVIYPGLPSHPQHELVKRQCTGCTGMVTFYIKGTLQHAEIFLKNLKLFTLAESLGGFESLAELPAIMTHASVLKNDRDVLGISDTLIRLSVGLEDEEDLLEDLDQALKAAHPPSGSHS
Description: To evaluate the selectivity of Compounds 53 and 56, their effects on the activities of two other PLP-dependent enzymes, human cystathionine-β-synthase (CBS) and cystathionine-γ-lyase (CSE), were determined using a H2S-producing assay. Human CBS and CSE were expressed and purified in E. coli with a purity exceeding 90%, as confirmed by SDS-PAGE (Figures S4A and S5A). Subsequently, the H2S-producing activities of CBS and CSE were assessed in the presence of different concentrations of Compounds 53 and 56. A widely used CBS inhibitor, AOAA, and a specific CSE inhibitor, PAG, were used as positive controls (Figures S4B and S5B).
The H2S-producing activity of CBS was measured as previously described. The reaction mixture (200 μL) contained 50 mM of Hepes buffer (pH 7.4), 2 mM of homocysteine, 10 μM of PLP, 0.4 mM of lead nitrate, and 5 μg of CBS protein. It was preincubated at 37 °C for 3 min, and the reaction was initiated by the addition of 2 mM of cysteine. The reaction was monitored in a multifunctional microplate reader at 37 °C for 10 min. An extinction coefficient of 5500 M^−1 cm^−1 at 390 nm was used to calculate the lead sulfide concentration. The method used to determine CSE activity in the H2S-producing assay was identical to the CBS assay, except that 1 mM of cysteine was used as the sole substrate. […]

A549 cells [3] = experiment: Endogenous ROS levels, DCFH-DA fluorescence; assay type: cell-based, human; settings: 48 h, Compound 53 50 µM, Erastin 2.5 µM, 2-AAPA 20 µM
Description: Endogenous ROS levels in A549 cells were detected using the fluorescent dye DCFH-DA [48, 49]. A549 cells were cultured in DMEM supplemented with 10% fetal bovine serum at 37 °C in a humidified atmosphere containing 5% CO2. […] Subsequently, the cells were washed three times with prewarmed PBS, and fresh medium containing 10 μM of DCFH-DA was added. After 30 min of incubation, the cells were washed again with prewarmed PBS, fresh medium was added, and the cells were imaged using an inverted fluorescence microscope (Leica, Wetzlar, Germany). Images of live cells were acquired in six different fields. ImageJ software was used to analyze the images.

NFS1 E387A = target: T2, NFS1 E387A (Homo sapiens, UniProt Q9Y697, E387A); experiment: H2S-producing assay, NFS1 E387A mutant; assay type: biochemical
T2 construct: His tag (N); made in house; host or cells: E. coli BL21(DE3)
T2 sequence (Q9Y697 56-457 E387A): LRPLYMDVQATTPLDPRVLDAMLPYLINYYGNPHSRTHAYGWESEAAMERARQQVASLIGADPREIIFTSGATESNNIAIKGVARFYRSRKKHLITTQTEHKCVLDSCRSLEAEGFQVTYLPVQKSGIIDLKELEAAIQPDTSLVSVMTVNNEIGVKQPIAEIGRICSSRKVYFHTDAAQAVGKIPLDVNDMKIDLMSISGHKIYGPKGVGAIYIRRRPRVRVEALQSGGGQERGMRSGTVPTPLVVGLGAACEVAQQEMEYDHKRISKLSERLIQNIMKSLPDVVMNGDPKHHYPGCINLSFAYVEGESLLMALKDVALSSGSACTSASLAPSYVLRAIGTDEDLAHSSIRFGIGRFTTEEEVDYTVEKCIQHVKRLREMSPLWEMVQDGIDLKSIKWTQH
Description: To further validate the accuracy of the simulated results, the residues Cys158, Glu387, Lys157, and His156 were mutated to alanine using site-directed mutagenesis.
For the expression and purification of NFS1Δ1-55/ISD11 in E. coli, the plasmid pNFS1-ISD11 was transformed into BL21(DE3) cells. The cells were grown at 37 °C in 1 L cultures of LB medium containing chloramphenicol (50 μg/ml) until the optical density at 600 nm (OD600) reached 0.6–0.8. Protein expression was induced by adding 0.1 mM isopropyl β-D-1-thiogalactopyranoside (IPTG), followed by an additional 12 h of incubation at 25 °C. The cells were harvested by centrifugation at 8000 rpm for 10 min at 4 °C, then resuspended in lysis buffer containing 50 mM phosphate-buffered saline (PBS, pH 7.4), 500 mM NaCl, 100 mg/L lysozyme, 30 mM imidazole, and 1 mM phenylmethanesulfonyl fluoride (PMSF). The resuspended cells were incubated on ice for 1 h, followed by sonication using an Ultrasonic Cell Disruption System (Scientz, Ningbo, China). The supernatant was obtained by centrifugation at 12,000 rpm for 30 min at 4 °C and was loaded onto a HisTrap FF column (GE Healthcare, Chicago, MA, USA) pre-equilibrated with lysis buffer. […] The protein concentration was measured using a BCA protein assay reagent kit (TransGen Biotech, Beijing, China).

A549 cells [4] = experiment: Cellular iron content by atomic absorption spectroscopy; assay type: cell-based, human; settings: 50 µM, 48 h
Description: A549 cells were seeded in a 6-well plate and grown to 40–60% confluence. […] The cells were then washed three times with PBS and digested with 0.25% trypsin (Servicebio, Wuhan, China) for 2 min. The cells were divided into two equal groups: group A and group B. In group A, the cells were lysed with RIPA lysis buffer supplemented with 1 mM of PMSF to extract the total proteins. Protein concentrations were measured using a BCA protein assay reagent kit. In group B, the cells were treated with concentrated nitric acid at 70 °C for 2 h. Once the cells were completely nitrated, the temperature was increased to 150 °C until the nitric acid had completely evaporated. Subsequently, the samples were diluted to 10 mL with a solution containing 1% HNO3 and 0.1% KCl, and the iron levels were measured using atomic absorption spectroscopy (AAS; Analytik Jena AG, Jena, Germany). The iron content was calculated based on the standard curve, and the values were normalized to the protein concentration.

With `COc1cc(/C=N/NC(=O)COc2ccc(Cl)cc2Cl)ccc1O` [Compound 53] as the compound, how does the “SDH activity compared to the control group” value [1] read?
Its value is 81.8%.

And the “inhibitory effect on CSE” value [2]?
The value was “no significant inhibitory effects”.

What about the “intracellular ROS levels” value (A549 cells [3]) of the same compound?
The value was “did not significantly affect intracellular ROS levels”.

What about the IC50 (NFS1 E387A) of the same compound?
The IC50 was 105 ± 3.17 µM.

And the cellular iron content (A549 cells [4])?
Its cellular iron content is “significantly increased the cellular iron content”.

— publication PMC11942905, “Identification of a Selective Inhibitor of Human NFS1, a Cysteine Desulfurase Involved in Fe-S Cluster Assembly, via Structure-Based Virtual Screening” (International Journal of Molecular Sciences, 2025)
